Measurements reported in patent US20240307349A1, “METHODS FOR THE PREPARATION AND DOSE REGIMENS FOR USE OF SSTR4 AGONISTS AND SALTS THEREOF” (priority 2023, published 2024).
Like-named read-outs stand apart in the source and are kept apart here.

Columns and labels:
Format in all cases: in vivo, human
healthy subjects [1] = test: Phase 1 study LXBB (SAD/MAD), safety and tolerability in healthy subjects
Description: (§1) The safety and tolerability of Example 5, were initially based on the 2 completed Phase 1 studies (LXBB and LXBA) and later confirmed with 3 completed Phase 2 studies (OA03, BP03, and NP03, as disclosed below).
(§2) Phase 1 Study LXBB was a first-in-human single-ascending dose/multiple-ascending dose (SAD/MAD) study in 89 healthy subjects (TABLE 1). […] One subject was discontinued due to the nondrug-related AE of pyrexia. In the SAD study, 1 subject each reported AEs of temporomandibular joint syndrome and tension headache. In the food effect study, 1 subject reported dry eye and nausea. In the Younger Group 10-day multiple-dose exposure study, the most commonly reported AEs were headache (2 subjects), diarrhea (2 subjects), nausea, rhinitis, and orthostatic hypotension (1 subject each). In the Elderly Group 10-day multiple-dose exposure study, the most commonly reported AEs were headache (5 subjects), pain in extremity (1 subject), vessel puncture site bruise (1 subject), dizziness (1 subject), and orthostatic hypotension (1 subject).
The mean PR interval increase from baseline was 13 msec in subjects receiving single 400-mg dose (SAD); the highest PR interval change from baseline in an individual subject was 45 msec (after the 300-mg dose in MAD).

patients = test: Pooled safety analysis of Phase 2 studies OA03, BP03 and NP03; conditions: 200 mg to 600 mg
Experimental: For each of these studies, further analyses were performed to identify TEAEs related to CV, thyroid, and abnormal renal function. CV AEs were identified using prespecified standardized MedDRA queries/preferred terms (SMQs/PTs) for cardiac arrhythmia, hypotension, major adverse cardiovascular event, and congestive heart failure. Thyroid-related AEs were identified with the ‘Hypothyroidism’ (SMQ), and AEs associated with abnormal renal function were identified with the high-level terms (HLTs) renal failure and impairment and select PTs.
Safety data from the 3 pooled intervention-specific appendix (ISAs), OA03, BP03, and NP03 were analyzed for the following safety topics of interest.
Thus, after the treatment of a total 282 patients that were administered from 200 mg to 600 mg of Example 5 in the 3 phase 2 studies, an adequate safety profile was established. While the safety of the 3 phase 2 studies were discussed together, the efficacy results for each study will be discussed herein.

healthy subjects [2] = test: Phase 1 study LXBA, safety and tolerability in healthy subjects
Description: as §1
(§3) Study LXBA is a completed study and consisted of 2 parts, Part A and Part B (TABLE 1). Part A of the study had 18 healthy subjects in 3 dosing cohorts, and Part B had 9 healthy subjects exposed to Example 5. […] In Part A, all treatment-emergent adverse events (TEAEs) were mild in severity except for 1 moderate event of presyncope. Constipation and insomnia (2 events each) were the only TEAEs reported in >1 subject. In Part B, the reported TEAEs were dysgeusia, nausea, and vomiting, which were all mild in severity.

[3] = Phase 1 study LXBB, single-dose pharmacokinetics in healthy subjects
Experimental: A total of 116 healthy subjects received at least one dose of Example 5 in phase 1 studies LXBB and LXBA.
The single-dose pharmacokinetics (PK) of Example 5 were evaluated at a dose range of from 20 to 400 mg.
as §2

[4] = Phase 1 study LXBA, multiple-dose steady-state plasma PK in healthy subjects; conditions: for RA (accumulation ratio based on AUC(0-τ)) / AUC: tau = 12 hours; for Cmax / AUC(0-t) / AUC: human, in vivo, steady state; for Cmax: n = 6, geometric mean; for AUC(0-t): = 2 × AUC(0-τ), read-out: AUC(0-24); for AUC: geometric mean, read-out: AUC(0-τ)
Experimental: The multiple-dose PK of Example 5 were evaluated at doses of 200 mg, 400 mg, and 600 mg, twice daily. The median time to tmax ranged from 1 to 3 hours post dose.
as §3

participants with CLBP = test: H0P-MC-BP03 Phase 2 placebo-controlled trial, chronic low back pain
Description: The purpose of this study was to test whether Example 5 is efficacious in relieving chronic low back pain (CLBP). Data will be collected to assess the safety and tolerability of Example 5 in this study population, which was previously discussed. Pharmacokinetic (PK) properties and pharmacodynamic (PD) effects were also be explored. The totality of data from this proof-of-concept study will assess the benefits and risks associated with Example 5.
BP03 was an 8-week, Phase 2, randomized, double-blind, placebo-controlled study that will compare Example 5 versus placebo in participants with CLBP. Participants received either Example 5 or placebo. Based on tolerability, participants took up to a maximum of 3 capsules orally (each capsule is 200 mg), twice daily (BID), approximately every 12 hours, for a total dose of 600 mg.
The primary clinical question of interest was, “What is the treatment difference between Example 5 and placebo assessed using mean change from baseline to endpoint (Week 8) for average pain intensity (API) as measured by the numeric rating scale (NRS) in participants with CLBP regardless of initiation of rescue medication or other allowed concomitant medication and assuming that they would have continued initially randomized treatment condition?”

Cc1cccnc1OCC(C)(C)NC(=O)[C@H]1[C@@H]2CNC[C@@H]21.O=C(O)C(O)C(O)C(=O)O [Example 5, (1R,5S,6r)-N-(2-Methyl-1-((3-methylpyridin-2-yl)oxy)propan-2-yl)-3-azabicyclo[3.1.0]hexane-6-carboxamide L-tartrate sesquihydrate]
deaths or serious adverse events (SAEs) (healthy subjects [1]; SAD and MAD study): No deaths or serious adverse events (SAEs) were reported
severity of adverse events (AEs) (healthy subjects [1]; SAD and MAD study): mild or moderate in severity
tolerability (healthy subjects [1]; SAD and MAD study, 89 healthy subjects): well tolerated
highest PR interval change from baseline in an individual subject (healthy subjects [1]; after the 300-mg dose in MAD): 45 ms
changes in chemistry, hematology, or coagulation parameters (healthy subjects [1]; human, in vivo): no clinically significant changes
mean PR interval increase from baseline (healthy subjects [1]; single 400-mg dose (SAD)): 13 ms
differences in thyroid-related TEAEs or thyroid analytes versus placebo (patients): no clinically meaningful differences
tolerability (healthy subjects [2]; Part A 18 and Part B 9 healthy subjects): generally well tolerated
deaths, SAEs, or discontinuations due to AEs (healthy subjects [2]; human, in vivo): No deaths, SAEs, or discontinuations due to AEs have been reported
severity of AEs (healthy subjects [2]; human, in vivo): majority of AEs were of mild severity
Tmax ([3]; human, in vivo): 2 to 3 h
CL renal ([3]; human, in vivo, single dose, 20 to 400 mg, read-out: Renal clearance (converted)): ~167 mL/min
half-life ([3]; human, in vivo, single dose, 20 to 400 mg, read-out: mean terminal half-life (t1/2)): 11 to 13 h
dose dependence of plasma concentrations ([3]; single dose, 20 to 400 mg): generally increased in a dose-proportional manner
inter-subject variability coefficient of variation of plasma concentrations ([3]; single dose, 20 to 400 mg): < 25%
RA (accumulation ratio based on AUC(0-τ)) ([4]; 200 mg BID): 1.49
RA (accumulation ratio based on AUC(0-τ)) ([4]; 400 mg BID): 1.81
RA (accumulation ratio based on AUC(0-τ)) ([4]; 600 mg BID): 1.64
Cmax ([4]; 200 mg BID (400 mg)): 1620 ng/mL
AUC(0-t) ([4]; 200 mg BID): 23000 ng·h/mL
AUC ([4]; 200 mg BID): 11500 ng·h/mL
Cmax ([4]; 400 mg BID (800 mg)): 3240 ng/mL
AUC(0-t) ([4]; 400 mg BID): 51000 ng·h/mL
AUC ([4]; 400 mg BID): 25800 ng·h/mL
Cmax ([4]; 600 mg BID (1200 mg)): 5210 ng/mL
AUC(0-t) ([4]; 600 mg BID): 77400 ng·h/mL
AUC ([4]; 600 mg BID): 38700 ng·h/mL
steady-state Cmax and AUC0-24 inter-subject coefficient of variations ([4]; multiple dose, 200 mg, 400 mg and 600 mg twice daily): < 25%
Mean change from baseline assessment to endpoint for API as measured using the NRS (participants with CLBP; 8 weeks after initial treatment administration, up to 600 mg Q12H, n = 102): −1.7
primary objective: efficacy versus placebo, API by weekly average of NRS (participants with CLBP; Week 8, CLBP): did not meet the prespecified threshold
